Measurements taken from patent US8921376B2, “Pyrrolopyridines useful as inhibitors of protein kinase” (Vertex Pharmaceuticals Incorporated, priority 2005, dated 2014).

Columns and labels:
Format in all cases: biochemical
JAK3 = biological target: T1, JAK3 (Homo sapiens, UniProt P52333); test: JAK3 inhibition assay (33P incorporation into poly(Glu)4Tyr)
T1 sequence (P52333 1-1124): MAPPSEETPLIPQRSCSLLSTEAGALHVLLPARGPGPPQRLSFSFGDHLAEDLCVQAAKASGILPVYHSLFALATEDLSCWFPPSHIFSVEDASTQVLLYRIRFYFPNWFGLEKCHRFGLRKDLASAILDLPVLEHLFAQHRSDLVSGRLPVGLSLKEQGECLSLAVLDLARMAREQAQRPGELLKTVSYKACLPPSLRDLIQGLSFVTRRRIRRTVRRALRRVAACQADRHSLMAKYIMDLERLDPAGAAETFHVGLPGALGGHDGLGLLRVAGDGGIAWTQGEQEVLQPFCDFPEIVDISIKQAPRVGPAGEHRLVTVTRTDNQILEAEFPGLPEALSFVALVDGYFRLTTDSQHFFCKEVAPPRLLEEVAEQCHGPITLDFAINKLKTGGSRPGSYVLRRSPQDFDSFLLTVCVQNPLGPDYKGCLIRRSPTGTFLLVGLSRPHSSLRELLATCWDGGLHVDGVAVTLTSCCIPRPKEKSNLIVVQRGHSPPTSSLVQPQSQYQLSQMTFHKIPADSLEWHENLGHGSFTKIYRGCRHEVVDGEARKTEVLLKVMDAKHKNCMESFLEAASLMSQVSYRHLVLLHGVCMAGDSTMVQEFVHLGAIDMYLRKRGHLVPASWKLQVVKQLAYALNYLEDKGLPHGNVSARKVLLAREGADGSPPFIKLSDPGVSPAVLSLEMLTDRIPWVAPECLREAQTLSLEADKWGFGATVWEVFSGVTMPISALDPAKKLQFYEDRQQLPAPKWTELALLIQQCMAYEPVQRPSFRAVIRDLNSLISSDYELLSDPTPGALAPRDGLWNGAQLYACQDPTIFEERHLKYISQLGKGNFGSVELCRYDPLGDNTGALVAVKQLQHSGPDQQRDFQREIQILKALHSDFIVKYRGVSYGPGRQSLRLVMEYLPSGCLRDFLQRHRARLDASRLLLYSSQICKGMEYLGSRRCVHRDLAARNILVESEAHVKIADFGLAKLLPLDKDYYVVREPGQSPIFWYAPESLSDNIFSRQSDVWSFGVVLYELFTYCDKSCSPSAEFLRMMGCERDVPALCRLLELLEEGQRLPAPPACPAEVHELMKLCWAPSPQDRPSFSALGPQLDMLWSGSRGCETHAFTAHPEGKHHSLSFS
Outline: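 Human JAK3 at 1 nM phosphorylated 1 μM poly(Glu)4Tyr using 5 μM [33P]ATP in HEPES pH 7.4 buffer with MgCl2, DTT and BSA. Reactions ran 20 min at 25° C. and were stopped with TCA. 33P incorporation was measured by scintillation after glass-fiber filter capture.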

ROCK I = ROCK I (Homo sapiens, UniProt Q13464); test: ROCK-I inhibition assay (radioactive enzyme assay, MBP substrate)
ROCK I, sequence (Q13464 whole entry): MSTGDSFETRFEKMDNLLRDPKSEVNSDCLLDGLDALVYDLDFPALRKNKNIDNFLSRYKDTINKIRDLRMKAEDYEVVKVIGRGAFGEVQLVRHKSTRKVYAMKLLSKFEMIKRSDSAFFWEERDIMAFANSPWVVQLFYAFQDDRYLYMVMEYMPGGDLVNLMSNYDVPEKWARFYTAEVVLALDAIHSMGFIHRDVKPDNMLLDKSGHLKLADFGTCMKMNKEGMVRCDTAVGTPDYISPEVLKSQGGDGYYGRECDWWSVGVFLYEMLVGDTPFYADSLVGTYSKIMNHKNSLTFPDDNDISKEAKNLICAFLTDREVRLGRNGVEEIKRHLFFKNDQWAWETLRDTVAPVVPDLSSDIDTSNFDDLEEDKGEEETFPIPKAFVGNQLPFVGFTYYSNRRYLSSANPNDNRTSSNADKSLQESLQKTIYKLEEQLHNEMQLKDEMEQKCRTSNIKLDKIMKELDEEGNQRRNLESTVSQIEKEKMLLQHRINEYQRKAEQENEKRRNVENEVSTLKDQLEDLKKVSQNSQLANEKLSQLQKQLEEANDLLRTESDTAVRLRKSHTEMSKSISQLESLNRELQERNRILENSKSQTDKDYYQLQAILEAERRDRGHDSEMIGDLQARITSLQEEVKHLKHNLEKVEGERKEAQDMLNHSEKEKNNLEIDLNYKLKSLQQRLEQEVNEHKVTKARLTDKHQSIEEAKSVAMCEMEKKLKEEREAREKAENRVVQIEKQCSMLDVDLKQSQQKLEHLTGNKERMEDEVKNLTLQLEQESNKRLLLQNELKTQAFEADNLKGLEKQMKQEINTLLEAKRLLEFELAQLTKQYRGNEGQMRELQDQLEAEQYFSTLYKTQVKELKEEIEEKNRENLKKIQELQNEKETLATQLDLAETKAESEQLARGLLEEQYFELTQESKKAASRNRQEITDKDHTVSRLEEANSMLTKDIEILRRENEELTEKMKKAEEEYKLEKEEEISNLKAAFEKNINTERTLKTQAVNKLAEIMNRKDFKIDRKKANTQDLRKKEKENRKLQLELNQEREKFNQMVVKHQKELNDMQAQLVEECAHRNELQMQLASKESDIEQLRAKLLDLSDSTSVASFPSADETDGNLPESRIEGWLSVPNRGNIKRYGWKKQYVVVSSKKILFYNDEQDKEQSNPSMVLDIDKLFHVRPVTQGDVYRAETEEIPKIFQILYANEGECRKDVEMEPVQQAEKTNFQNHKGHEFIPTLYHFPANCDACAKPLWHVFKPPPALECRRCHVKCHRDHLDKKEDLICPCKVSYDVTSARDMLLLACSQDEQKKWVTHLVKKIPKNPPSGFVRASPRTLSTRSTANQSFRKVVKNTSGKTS
Outline: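 Human ROCK at 5 nM phosphorylated 27 μM myelin basic protein with 13 μM [γ-33P]ATP (final) in HEPES pH 7.5, MgCl2, NaCl, DTT and 1.5% DMSO. Reactions ran 2 h at room temperature before TCA quench and filter-plate scintillation counting. After background subtraction, data were fit to give Ki(app).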

JAK2 = JAK2 (Homo sapiens, UniProt O60674); test: JAK2 inhibition assay (as Example 3 with JAK-2 enzyme)
JAK2, sequence (O60674 whole entry): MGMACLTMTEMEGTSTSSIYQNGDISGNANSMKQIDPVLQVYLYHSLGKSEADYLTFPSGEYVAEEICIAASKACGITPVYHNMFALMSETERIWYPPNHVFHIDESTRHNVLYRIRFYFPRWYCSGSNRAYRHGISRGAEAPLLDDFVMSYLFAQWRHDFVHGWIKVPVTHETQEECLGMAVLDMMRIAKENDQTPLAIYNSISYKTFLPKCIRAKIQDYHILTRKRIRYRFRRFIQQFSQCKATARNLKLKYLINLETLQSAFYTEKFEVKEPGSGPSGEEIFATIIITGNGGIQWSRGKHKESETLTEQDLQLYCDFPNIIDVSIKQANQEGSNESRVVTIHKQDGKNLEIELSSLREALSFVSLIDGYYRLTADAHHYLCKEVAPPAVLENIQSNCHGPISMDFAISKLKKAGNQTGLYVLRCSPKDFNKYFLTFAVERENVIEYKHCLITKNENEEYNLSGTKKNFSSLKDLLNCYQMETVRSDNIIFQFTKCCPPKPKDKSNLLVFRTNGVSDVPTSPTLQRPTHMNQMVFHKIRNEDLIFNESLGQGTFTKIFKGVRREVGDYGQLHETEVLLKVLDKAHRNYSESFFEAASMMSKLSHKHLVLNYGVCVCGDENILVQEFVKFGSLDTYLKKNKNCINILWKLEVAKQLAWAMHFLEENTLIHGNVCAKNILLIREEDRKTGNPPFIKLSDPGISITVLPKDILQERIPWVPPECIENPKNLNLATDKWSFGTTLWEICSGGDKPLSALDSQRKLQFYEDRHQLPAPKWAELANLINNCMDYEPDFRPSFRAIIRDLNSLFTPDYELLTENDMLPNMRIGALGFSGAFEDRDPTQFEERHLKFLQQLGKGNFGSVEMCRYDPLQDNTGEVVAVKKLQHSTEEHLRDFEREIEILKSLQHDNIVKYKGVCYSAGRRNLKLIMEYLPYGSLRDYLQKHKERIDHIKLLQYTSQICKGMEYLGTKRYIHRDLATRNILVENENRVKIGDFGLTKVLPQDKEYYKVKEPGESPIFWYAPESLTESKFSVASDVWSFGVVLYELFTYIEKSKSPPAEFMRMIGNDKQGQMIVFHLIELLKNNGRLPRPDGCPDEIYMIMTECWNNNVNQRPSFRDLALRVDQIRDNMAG
Outline: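 Radiometric JAK2 kinase assay: poly(Glu)4Tyr substrate at final 15 μM, ATP at final 12 μM with [33P]; buffer 100 mM HEPES pH 7.4, 1 mM DTT, 10 mM MgCl2, 25 mM NaCl, 0.01% BSA. 20 min at 25 °C, TCA-stopped, 33P incorporation counted after filter capture.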

[1] = Table 6, enzyme inhibition data (Ki)
[2] = enzyme inhibition, Ki(app), Table 5

SMILES | Ki (JAK3; [1]) | Ki (ROCK I; [1]) | Ki (JAK2; [1]) | Ki (JAK3; enzyme inhibition, Table 5) | Ki (ROCK I; [2]) | Ki (JAK2; enzyme inhibition, Table 5)
c1ccc(-c2ccccc2-c2ccnc3[nH]ccc23)cc1 [compound 226] | > 5000 nM | > 4000 nM | > 5000 nM |  |  | 
CC1CCCC(Nc2c(Cl)cnc3[nH]ccc23)C1 (stereo not drawn) [compound 161] | < 500 nM | < 500 nM | < 500 nM |  |  | 
CN(C)CCCN(C)C(=O)c1cc(-c2c(Cl)cnc3[nH]ccc23)c[nH]1 [compound 349] | 500 to 5000 nM | > 4000 nM | 500 to 5000 nM |  |  | 
Cc1noc(C)c1-c1c(Cl)cnc2[nH]ccc12 [compound 146] | > 5000 nM | > 4000 nM | > 5000 nM |  |  | 
Cc1cccc(C)c1-c1ccnc2[nH]ccc12 [compound 217] | > 5000 nM | > 4000 nM | > 5000 nM |  |  | 
O=C(NCC(F)(F)F)c1cc(-c2ccnc3[nH]ccc23)c[nH]1 [compound 259] | < 500 nM | < 500 nM | < 500 nM |  |  | 
COc1cccc(-c2ccnc3[nH]ccc23)c1OC [compound 233] | 500 to 5000 nM | 500 to 5000 nM | > 5000 nM |  |  | 
N#CC1(c2cccc(-c3ccnc4[nH]ccc34)n2)CCCCC1 [compound 103, 1-(6-(1H-pyrrolo[2,3-b]pyridin-4-yl)pyridin-2-yl)cyclohexanecarbonitrile] |  |  |  | < 500 nM | < 500 nM | < 500 nM
CCCN(CC(F)(F)F)C(=O)c1cc(-c2c(F)cnc3[nH]ccc23)c[nH]1 [compound 388] | < 500 nM | < 500 nM | < 500 nM |  |  | 
CCCNC(=O)c1cc(-c2c(Cl)cnc3[nH]ccc23)c[nH]1 [compound 279] | < 500 nM | 500 to 5000 nM | < 500 nM |  |  | 
N#CCCN(Cc1cccnc1)C(=O)c1cc(-c2ccnc3[nH]ccc23)c[nH]1 [compound 299] | < 500 nM | < 500 nM | < 500 nM |  |  | 
CN(Cc1cccnc1)C(=O)c1cc(-c2ccnc3[nH]ccc23)c[nH]1 [compound 370] | < 500 nM | < 500 nM | < 500 nM |  |  | 
CCCNC(=O)c1cccc(-c2ccnc3[nH]ccc23)c1 [compound 256] | 500 to 5000 nM | 500 to 5000 nM | > 5000 nM |  |  | 
CN(CCO)c1cccc(-c2ccnc3[nH]ccc23)n1 [compound 35, 2-(N-(6-(1H-Pyrrolo[2,3-b]pyridin-4-yl)pyridin-2-yl)-N-methylamino)ethanol] |  |  |  | 500 to 5000 nM | < 500 nM | 500 to 5000 nM
COc1cccc(OC)c1-c1ccnc2[nH]ccc12 [compound 222] | > 5000 nM | > 4000 nM | > 5000 nM |  |  | 
O=C(Nc1cccc(-c2ccnc3[nH]ccc23)n1)c1ccccc1 [compound 100, N-(6-(1H-pyrrolo[2,3-b]pyridine-4-yl)pyridin-2-yl)benzamide] |  |  |  | 500 to 5000 nM | 500 to 5000 nM | < 500 nM
CNC(=O)c1cccc(-c2ccnc3[nH]ccc23)c1 [compound 91, N-Methyl-3-(1H-pyrrolo[2,3-b]pyridin-4-yl)-benzamide] |  |  |  | 500 to 5000 nM | 500 to 5000 nM | 500 to 5000 nM
COc1ccc(F)cc1-c1ccnc2[nH]ccc12 [compound 205] | 500 to 5000 nM | 500 to 5000 nM | 500 to 5000 nM |  |  | 
C=CCN(C(=O)c1csc(-c2ccnc3[nH]ccc23)n1)[C@@H](C)c1ccccc1 [compound 408] | < 500 nM | < 500 nM | < 500 nM |  |  | 
CC(C)(C)OCc1ccccc1-c1ccnc2[nH]ccc12 [compound 232] | > 5000 nM | > 4000 nM | > 5000 nM |  |  | 
O=C(c1cc(-c2c(F)cnc3[nH]ccc23)c[nH]1)N(CCC(F)(F)F)CC1CC1 [compound 390] | < 500 nM | 500 to 5000 nM | < 500 nM |  |  | 
CC1CCC(C)N1C(=O)c1cc(-c2ccnc3[nH]ccc23)c[nH]1 (stereo not drawn) [compound 375] | < 500 nM | < 500 nM | < 500 nM |  |  | 

SMILES | Ki (JAK3; [1]) | Ki (ROCK I; [1]) | Ki (JAK2; [1]) | Ki (JAK3; enzyme inhibition, Table 5) | Ki (ROCK I; [2]) | Ki (JAK2; enzyme inhibition, Table 5)
CCCN(CCC#N)C(=O)c1cc(-c2ccnc3[nH]ccc23)c[nH]1 [compound 302] | < 500 nM | < 500 nM | < 500 nM |  |  | 
Fc1ccccc1-c1ccnc2[nH]ccc12 [compound 236] | < 500 nM | < 500 nM | 500 to 5000 nM |  |  | 
CC(C)CN(CC(C)C)C(=O)c1cc(-c2c(Cl)cnc3[nH]ccc23)c[nH]1 [compound 342] | < 500 nM | > 4000 nM | < 500 nM |  |  | 
N#CC1(c2cccc(-c3ccnc4[nH]ccc34)n2)CC1 [compound 101, 1-(6-(1H-pyrrolo[2,3-b]pyridin-4-yl)pyridin-2-yl)cyclopropanecarbonitrile] |  |  |  | < 500 nM | < 500 nM | < 500 nM
CN(C)C(=O)c1cccc(-c2ccnc3[nH]ccc23)c1 [compound 92, N,N-Dimethyl-3-(1H-pyrrolo[2,3-b]pyridin-4-yl)-benzamide] |  |  |  | 500 to 5000 nM | 500 to 5000 nM | 500 to 5000 nM
CCN(CC)c1cccc(-c2ccnc3[nH]ccc23)n1 [compound 52, N,N-Diethyl-6-(1H-pyrrolo[2,3-b]pyridin-4-yl)pyridin-2-amine] |  |  |  | < 500 nM | < 500 nM | < 500 nM
O=C(c1cc(-c2c(F)cnc3[nH]ccc23)c[nH]1)N(CC1CC1)CC(F)(F)F [compound 387] | < 500 nM | < 500 nM | < 500 nM |  |  | 
N#Cc1ccc(Cl)cc1Nc1c(Cl)cnc2[nH]ccc12 [compound 159] | < 500 nM | > 4000 nM | < 500 nM |  |  | 
NC(=O)C1CCCN1C(=O)c1cc(-c2c(Cl)cnc3[nH]ccc23)c[nH]1 (stereo not drawn) [compound 352] | < 500 nM | > 4000 nM | < 500 nM |  |  | 
CCN(CCO)C(=O)c1cc(-c2ccnc3[nH]ccc23)c[nH]1 [compound 361] | < 500 nM | < 500 nM | < 500 nM |  |  | 
N#CCC(=O)N1CC=C(c2ccnc3[nH]ccc23)CC1 [compound 66] |  |  |  | 500 to 5000 nM | < 500 nM | < 500 nM
C=CCN(CC=C)C(=O)c1cc(-c2c(Cl)cnc3[nH]ccc23)c[nH]1 [compound 330] | < 500 nM | 500 to 5000 nM | < 500 nM |  |  | 
CCCN(CCC#N)C(=O)c1cc(-c2c(F)cnc3[nH]ccc23)c[nH]1 [compound 396] | < 500 nM | < 500 nM | < 500 nM |  |  | 
CC(C)(C)OC(=O)N1CCC[C@@H](Nc2c(Cl)cnc3[nH]ccc23)C1 [compound 164] | < 500 nM | > 4000 nM | < 500 nM |  |  | 
O=C(O)c1cc(-c2ccnc3[nH]ccc23)c[nH]1 [compound 274] | < 500 nM | > 4000 nM | 500 to 5000 nM |  |  | 
CN(C)CCCN(C)C(=O)c1cc(-c2ccnc3[nH]ccc23)c[nH]1 [compound 365] | 500 to 5000 nM | < 500 nM | 500 to 5000 nM |  |  | 
COc1ccc(-c2ccnc3[nH]ccc23)c(OC)c1 [compound 220] | 500 to 5000 nM | 500 to 5000 nM | 500 to 5000 nM |  |  | 
COCCN(CCOC)C(=O)c1cc(-c2c(Cl)cnc3[nH]ccc23)c[nH]1 [compound 339] | < 500 nM | > 4000 nM | < 500 nM |  |  | 
Nc1ccccc1-c1ccnc2[nH]ccc12 [compound 119] |  |  |  | > 5000 nM | 500 to 5000 nM | > 5000 nM
O=C(Cn1ccc2cnc(-c3ccnc4[nH]ccc34)nc21)NCC(F)(F)F [compound 424] | < 500 nM | > 4000 nM | < 500 nM |  |  | 
CCN(Cc1ccccn1)C(=O)c1cc(-c2c(Cl)cnc3[nH]ccc23)c[nH]1 [compound 333] | < 500 nM | > 4000 nM | < 500 nM |  |  | 
CC[C@H](C)NC(=O)c1cc(-c2ccnc3[nH]ccc23)c[nH]1 [compound 290] | 500 to 5000 nM | < 500 nM | < 500 nM |  |  | 
